Experimental data reported in patent US8685970B2, “Quinolines and related analogs as sirtuin modulators” (GlaxoSmithKline, LLC, priority 2008, dated 2014).

Molecular target: T1, SIRT1 (Homo sapiens, UniProt Q96EB6)
T1 sequence (Q96EB6 1-747): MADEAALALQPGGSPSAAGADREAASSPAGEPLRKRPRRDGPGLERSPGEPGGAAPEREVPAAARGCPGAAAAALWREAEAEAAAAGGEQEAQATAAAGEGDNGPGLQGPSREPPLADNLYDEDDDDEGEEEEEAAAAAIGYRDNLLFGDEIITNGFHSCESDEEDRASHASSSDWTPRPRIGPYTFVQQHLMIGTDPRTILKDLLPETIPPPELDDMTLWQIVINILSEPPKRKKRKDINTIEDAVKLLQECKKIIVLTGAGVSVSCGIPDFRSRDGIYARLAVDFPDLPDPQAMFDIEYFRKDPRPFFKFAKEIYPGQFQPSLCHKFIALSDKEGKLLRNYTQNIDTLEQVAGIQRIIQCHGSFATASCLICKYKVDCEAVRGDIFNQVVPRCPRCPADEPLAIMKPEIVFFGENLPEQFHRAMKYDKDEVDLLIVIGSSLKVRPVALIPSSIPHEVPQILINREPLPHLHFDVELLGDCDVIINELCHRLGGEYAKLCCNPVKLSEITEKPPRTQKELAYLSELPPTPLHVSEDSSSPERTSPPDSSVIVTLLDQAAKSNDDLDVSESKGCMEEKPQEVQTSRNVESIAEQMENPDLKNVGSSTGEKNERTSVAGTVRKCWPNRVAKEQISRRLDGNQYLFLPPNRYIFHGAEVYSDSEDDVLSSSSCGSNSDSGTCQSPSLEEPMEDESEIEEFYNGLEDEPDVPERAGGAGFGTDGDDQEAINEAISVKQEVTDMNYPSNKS
Assay: Mass spectrometry based SIRT1 deacetylation assay (activation)
Type: biochemical
Details: 10 nM SIRT1, 0.5 μM peptide substrate, 120 μM βNAD+, 25 min at 25° C.
Text: A mass spectrometry based assay was used to identify modulators of SIRT1 activity. The mass spectrometry based assay utilizes a peptide having 20 amino acid residues as follows: Ac-EE-K (biotin)-GQSTSSHSK (Ac)N1eSTEG-K(5TMR)-EE-NH2 (SEQ ID NO: 1) wherein K(Ac) is an acetylated lysine residue and Nle is a norleucine. The peptide is labeled with the fluorophore 5TMR (excitation 540 nm/emission 580 nm) at the C-terminus. The sequence of the peptide substrate is based on p53 with several modifications. In addition, the methionine residue naturally present in the sequence was replaced with the norleucine because the methionine may be susceptible to oxidation during synthesis and purification.
The mass spectrometry assay is conducted as follows: 0.5 μM peptide substrate and 120 μM βNAD^+ is incubated with 10 nM SIRT1 for 25 minutes at 25° C. in a reaction buffer (50 mM Tris-acetate pH 8, 137 mM NaCl, 2.7 mM KCl, 1 mM MgCl2, 5 mM DTT, 0.05% BSA). Test compounds may be added to the reaction as described above. The SirT1 gene is cloned into a T7-promoter containing vector and transformed into BL21(DE3). After the 25 minute incubation with SIRT1, 10 μL of 10% formic acid is added to stop the reaction. Reactions are sealed and frozen for later mass spec analysis. Determination of the mass of the substrate peptide allows for precise determination of the degree of acetylation (i.e. starting material) as compared to deacetylated peptide (product).
A control for inhibition of sirtuin activity is conducted by adding 1 μL of 500 mM nicotinamide as a negative control at the start of the reaction (e.g., permits determination of maximum sirtuin inhibition). A control for activation of sirtuin activity is conducted using 10 nM of sirtuin protein, with 1 μL of DMSO in place of compound, to determine the amount of deacetylation of the substrate at a given timepoint within the linear range of the assay. This timepoint is the same as that used for test compounds and, within the linear range, the endpoint represents a change in velocity.
For the above assay, SIRT1 protein was expressed and purified as follows. The SirT1 gene was cloned into a T7-promoter containing vector and transformed into BL21(DE3). The protein was expressed by induction with 1 mM IPTG as an N-terminal His-tag fusion protein at 18° C. overnight and harvested at 30,000×g. Cells were lysed with lysozyme in lysis buffer (50 mM Tris-HCl, 2 mM Tris[2-carboxyethyl]phosphine (TCEP), 10 μM ZnCl2, 200 mM NaCl) and further treated with sonication for 10 min for complete lysis. The protein was purified over a Ni-NTA column (Amersham) and fractions containing pure protein were pooled, concentrated and run over a sizing column (Sephadex S200 26/60 global). The peak containing soluble protein was collected and run on an Ion-exchange column (MonoQ). Gradient elution (200 mM-500 mM NaCl) yielded pure protein. This protein was concentrated and dialyzed against dialysis buffer (20 mM Tris-HCl, 2 mM TCEP) overnight. The protein was aliquoted and frozen at −80° C. until further use.
Sirtuin modulating compounds that activated SIRT1 were identified using the assay described above and are shown below in Table 1. The EC1.5 values represent the concentration of test compounds that result in 150% activation of SIRT1. The EC1.5 values for the activating compounds are represented by A (EC1.5<1.0 uM), B (EC1.5 1-25 uM), C (EC1.5>25 uM). The percent maximum fold activation is represented by A (Fold activation >200%) or B (Fold Activation <200%). “NT” indicates the compound was not tested in a particular assay.

Row | SMILES | EC1.5 (concentration of test compound that results in 150% activation of SIRT1) | % Fold Act. (percent maximum fold activation)
1 | O=C(Nc1cccc2ccc(-c3ccccc3)nc12)c1cccc(N2CCCC2)c1 [Compound 1] | C (EC1.5>25 uM) | –
2 | O=C(Nc1cccc2ccc(-c3ccccc3)nc12)c1cscn1 [Compound 2] | B (EC1.5 1-25 uM) | A (Fold activation >200%)
3 | O=C(Nc1cccc2ccc(-c3ccccc3)nc12)c1cnccn1 [Compound 3] | A (EC1.5<1.0 uM) | A (Fold activation >200%)
4 | O=C(Nc1cccc2ccc(-c3cccc(C(F)(F)F)c3)nc12)c1cnccn1 [Compound 4] | A (EC1.5<1.0 uM) | B (Fold Activation <200%)
5 | O=C(Nc1cccc2ccc(-c3cccc(C(F)(F)F)c3)nc12)c1cscn1 [Compound 5] | A (EC1.5<1.0 uM) | A (Fold activation >200%)
6 | O=C(Nc1cccc2ccc(-c3ccccc3)nc12)c1cccc(OC(F)(F)F)c1 [Compound 6] | C (EC1.5>25 uM) | –
7 | O=C(Nc1cccc2ccc(-c3cccc(OC(F)(F)F)c3)nc12)c1cscn1 [Compound 7] | B (EC1.5 1-25 uM) | A (Fold activation >200%)
8 | O=C(Nc1cccc2ccc(-c3cccc(OC(F)(F)F)c3)nc12)c1cnccn1 [Compound 8] | A (EC1.5<1.0 uM) | B (Fold Activation <200%)
9 | O=C(Nc1ccccc1)c1cccc2ccc(-c3ccccc3)nc12 [Compound 9] | C (EC1.5>25 uM) | B (Fold Activation <200%)
10 | O=C(Nc1ccccc1)c1cccc2ccc(-c3cccc(C(F)(F)F)c3)nc12 [Compound 10] | B (EC1.5 1-25 uM) | A (Fold activation >200%)
11 | O=C(Nc1ccccc1)c1cccc2ccc(-c3cccc(OC(F)(F)F)c3)nc12 [Compound 11] | B (EC1.5 1-25 uM) | B (Fold Activation <200%)
12 | O=C(Nc1nccs1)c1cccc2ccc(-c3ccccc3)nc12 [Compound 12] | A (EC1.5<1.0 uM) | A (Fold activation >200%)
13 | O=C(Nc1nccs1)c1cccc2ccc(-c3cccc(C(F)(F)F)c3)nc12 [Compound 13] | A (EC1.5<1.0 uM) | A (Fold activation >200%)
14 | O=C(Nc1nccs1)c1cccc2ccc(-c3cccc(OC(F)(F)F)c3)nc12 [Compound 14] | A (EC1.5<1.0 uM) | B (Fold Activation <200%)
15 | O=C(Nc1cnccn1)c1cccc2ccc(-c3ccccc3)nc12 [Compound 15] | A (EC1.5<1.0 uM) | B (Fold Activation <200%)
16 | O=C(Nc1cnccn1)c1cccc2ccc(-c3cccc(C(F)(F)F)c3)nc12 [Compound 16] | A (EC1.5<1.0 uM) | A (Fold activation >200%)
17 | O=C(Nc1cnccn1)c1cccc2ccc(-c3cccc(OC(F)(F)F)c3)nc12 [Compound 17] | A (EC1.5<1.0 uM) | A (Fold activation >200%)
18 | O=C(Nc1cccc2ccc(-c3cccc(OC(F)(F)F)c3)nc12)c1ccccc1 [Compound 19] | C (EC1.5>25 uM) | –
19 | O=C(Nc1cccc2ccc(-c3cccc(OC(F)(F)F)c3)nc12)c1ccccc1F [Compound 20] | C (EC1.5>25 uM) | –
20 | O=C(Nc1cccc2ccc(-c3cccc(OC(F)(F)F)c3)nc12)c1cccc(F)c1 [Compound 21] | C (EC1.5>25 uM) | –
21 | O=C(Nc1cccc2ccc(-c3cccc(OC(F)(F)F)c3)nc12)c1ccc(F)cc1 [Compound 22] | C (EC1.5>25 uM) | –
22 | O=C(Nc1cccc2ccc(-c3cccc(OC(F)(F)F)c3)nc12)c1cnc2ccccc2n1 [Compound 23] | C (EC1.5>25 uM) | –
23 | O=C(Nc1ccccn1)c1cccc2ccc(-c3cccc(OC(F)(F)F)c3)nc12 [Compound 24] | A (EC1.5<1.0 uM) | A (Fold activation >200%)
24 | O=C(Nc1cccnc1)c1cccc2ccc(-c3cccc(OC(F)(F)F)c3)nc12 [Compound 25] | A (EC1.5<1.0 uM) | A (Fold activation >200%)
25 | O=C(Nc1ccncc1)c1cccc2ccc(-c3cccc(OC(F)(F)F)c3)nc12 [Compound 26] | B (EC1.5 1-25 uM) | A (Fold activation >200%)
26 | Cc1csc(NC(=O)c2cccc3ccc(-c4cccc(C(F)(F)F)c4)nc23)n1 [Compound 27] | A (EC1.5<1.0 uM) | A (Fold activation >200%)
27 | O=C(Nc1nncs1)c1cccc2ccc(-c3cccc(C(F)(F)F)c3)nc12 [Compound 28] | A (EC1.5<1.0 uM) | A (Fold activation >200%)
28 | O=C(Nc1ccccn1)c1cccc2ccc(-c3cccc(C(F)(F)F)c3)nc12 [Compound 30] | A (EC1.5<1.0 uM) | A (Fold activation >200%)
